Molecular target: T1, Aurora A bound to TPX2 (Homo sapiens, UniProt O14965)
T1 construct: human Aurora A kinase domain (residues 122-403 in the pET24-d vector); His-tag (cleaved yes); made in house; host or cells: E. coli
T1 sequence (O14965 122-403): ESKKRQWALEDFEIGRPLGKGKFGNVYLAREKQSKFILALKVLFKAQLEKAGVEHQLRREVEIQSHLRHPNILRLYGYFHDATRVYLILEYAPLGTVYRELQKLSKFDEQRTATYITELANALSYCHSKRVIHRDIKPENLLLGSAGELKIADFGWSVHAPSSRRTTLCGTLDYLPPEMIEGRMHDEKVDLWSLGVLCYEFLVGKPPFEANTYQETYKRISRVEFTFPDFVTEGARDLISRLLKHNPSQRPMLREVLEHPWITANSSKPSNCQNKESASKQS
Test: Aurora A kinase activity and inhibition in the presence of TPX2
Format: biochemical
Conditions: TPX2 present
Procedure: Aurora A and AuroraB kinases were assayed using the homogeneous time-resolved fluorescence (HTRF) KinEASE STK2 kit from Cisbio (France). […] For both enzymes, the reactions were run for 30 min at room temperature and stopped by the addition of 10 μL of detection buffer containing EDTA, antiphospho-Ser/Thr antibody labelled with europium cryptate, and XL-665 conjugated streptavidin (62.5 nM final concentration). After incubation at room temperature for one hour, fluorescence was measured at 620 nm (europium cryptate) and 665 nm (XL-665) after excitation at 317 nm (lag time 60 μs, integration time 500 μs) using a Tecan Infinite M1000 PRO microplate reader (Greiner 384-well plates, white, non-binding, small volume). The ratio of fluorescence (665 nm/620 nm) was calculated for each well and the results were expressed as follows: specific signal=ratio (sample)−ratio (negative control), where ratio=665 nm/620 nm×10^4. […] Each concentration was measured in duplicates, and two independent determinations were made for each IC50 value. IC50 curves were generated using a four-parameter logistic model (XLfit from IDBS).

Question: For `CCc1ccc(N=C2SC(=Cc3ccnc(Nc4ccc(C(=O)O)cn4)c3)C(=O)N2C)cc1` [Compound 9], which IC50 is on record?
Answer: 1.4 µM

Source: patent US20190352297A1, “SELECTIVE AURORA A KINASE INHIBITORS” (UNIVERSITAT BERN, priority 2017, published 2019)
